Structures can show the parent of a compound that is named as a salt.
Tests used:
[1] = tested on: SB.mhdgc-1; test: viability at highest tested concentration (MAXR) relative to DMSO; higher = less cytotoxic; conditions: SB.mhdgc-1 (hereditary c.1380delA CDH1 gastric cancer)
In short: (§1)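 Compound in DMSO was pinned (23 nL) at 11 threefold-diluted concentrations into wells containing 500 patient-derived gastric cancer cells, hereditary or sporadic, in 5 μL medium per 1536 well. Cells were incubated for 48 h, then exposed to CellTiter-Glo for 30 min at room temperature. Luminescence was measured on a ViewLux. The values are viability normalised to DMSO, either at the highest concentration or as trapezoidal area under the curve.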

[2] = tested on: SB.msgc-1; test: as above; conditions: SB.msgc-1 (sporadic gastric cancer)
In short: as §1

[3] = tested on: SB.mhdgc-1; test: area under the dose-response curve of % viability (trapezoidal, 11 doses) (% viability x log10 concentration); higher = less cytotoxic; conditions: SB.mhdgc-1 (hereditary c.1380delA CDH1 gastric cancer)
In short: as §1

[4] = tested on: SB.msgc-1; test: as above; conditions: SB.msgc-1 (sporadic gastric cancer)
In short: as §1

SMILES	viability [1]	viability [2]	area under the dose-response curve [3]	area under the dose-response curve [4]
O=[S+]([O-])(/N=C/c1c(O)ccc2ccccc12)c1cccs1 (top concentration 46.0829 µM)	105%	52.8%	405	453
NC\1=N\C(=O)N(\C=C1)[C@@H]2O[C@H](CO)[C@@H](O)[C@@H]2O [Cytarabine] (top concentration 46.0829 µM)	20.7%	46.5%	155	311
Cc1cc(-c2ncc(CC(=O)Nc3ccc(-c4cnccn4)cn3)cc2C)ccn1 [LGK974] (top concentration 46.0829 µM)	17.8%	6.91%	495	462
Cc1cc(C[S+](=O)([O-])c2ccccc2)cc(OCc2ccc(CN3CCC[C@@H]3CO)cc2)c1 [PF-543] (top concentration 46.0829 µM)	57.5%	43%	483	488
O=C(NCc1ccccc1)[C@H](Cc1ccccc1)NC(=O)[C@H]1O[C@@H]1C(=O)NCCc1ccc(O)cc1 [CAA0225] (top concentration 46.0829 µM)	45.6%	57.1%	500	466
CCCNC(=O)Nc1ccc(Oc2ncnc3cc(OC)c(OC)cc23)cc1Cl [KRN-633] (top concentration 46.0829 µM)	47%	28.9%	454	441
O=C1N\C=N/C2=C1C=N[NH]2 [Allopurinol] (top concentration 46.0829 µM)	68.8%	70.1%	458	376
CC1(C)CCC(=C(CN2CCN(CC2)C3=CC=C(C=C3)C(=O)N[S+]([O-])(=O)C4=CC(=C(N[C@H](CCN5CCOCC5)CSC6=CC=CC=C6)C=C4)[S+]([O-])(=O)C(F)(F)F)\C1)/C7=CC=C(Cl)C=C7 [Navitoclax] (top concentration 46.0829 µM)	2.64%	4.94%	314	446
N\C1=N\C2=C(N=C[N]2COCCO)C(=O)N1 [Aciclovir] (top concentration 46.0829 µM)	60%	82.4%	413	499
C[C@H]1CN(C[C@@H](C)O1)CC(=O)NC2=CC=C3SC4=C(CC3=C2)C=CC=C4\C5=C\C(=O)\C=C(/O5)N6CCOCC6 (top concentration 46.0829 µM)	27.7%	40%	413	464
N#CC1(c2cccc(C(=O)Nc3cc(Oc4ccc5nc(NC(=O)C6CC6)sc5n4)ccc3F)c2Cl)CC1 [Takeda-6d] (top concentration 46.0829 µM)	68.7%	62.4%	496	434
O=C(Nc1cccc2c(=O)cc(-c3nnn[nH]3)oc12)c1ccc(OCCCCc2ccccc2)cc1 [Pranlukast hydrate] (top concentration 46.0829 µM)	9.85%	30.2%	499	316
CC(C)c1cc(C(=O)N2Cc3ccc(CN4CCN(C)CC4)cc3C2)c(O)cc1O (top concentration 46.0829 µM)	9.31%	43%	443	348
c1cc2c(cc1[C@H]1OC[C@H]3[C@@H]1CO[C@@H]3c1ccc3c(c1)OCO3)OCO2 [Sesamin] (top concentration 46.0829 µM)	57.4%	80.3%	495	499
CC[C@@H]1/C=C(\C)C[C@H](C)C[C@H](OC)[C@H]2O[C@@](O)(C(=O)C(=O)N3CCCC[C@H]3C(=O)O[C@H](/C(C)=C/[C@@H]3CC[C@H](Cl)[C@H](OC)C3)[C@H](C)[C@@H](O)CC1=O)[C@H](C)C[C@@H]2OC [Pimecrolimus] (top concentration 46.0829 µM)	38.6%	52.4%	474	507
COc1ccc([S+](=O)([O-])Nc2cc(-c3c(O)ccc4ccccc34)c(O)c3ccccc23)cc1 [C-188-9] (top concentration 46.0829 µM)	3.52%	43.1%	423	469
COC1=NC(=NC(=C1N\C2=N\CCN2)Cl)C [Moxonidine hydrochloride hydrate] (top concentration 46.0829 µM)	77.7%	122%	430	489
CCn1c(C(=O)N(C2CC2)C2CC2)cc2c3c(ncn3C)c(Nc3cc(C)n(C)n3)nc21 (top concentration 46.0829 µM)	91.1%	91.1%	503	512
O=C(CCCN1CCC(O)(c2ccc(Cl)cc2)CC1)c1ccc(F)cc1 [Haloperidol] (top concentration 46.0829 µM)	34%	97%	497	530
N=C(CCSCc1csc(N=C(N)N)n1)N[S+](N)(=O)[O-] [Famotidine] (top concentration 46.0829 µM)	83.3%	4.49%	479	264
O=C1NC(=O)[C@@H](c2cn3c4c(cccc24)CCC3)[C@@H]1c1c[nH]c2ccccc12 [Tivantinib] (top concentration 46.0829 µM)	39.4%	36.2%	369	392
COC[C@H](NC(=O)c1cnc(C)s1)C(=O)N[C@@H](COC)C(=O)N[C@@H](Cc1ccccc1)C(=O)[C@@]1(C)CO1 [Oprozomib] (top concentration 46.0829 µM)	2.05%	1.92%	242	239
Clc1ccc2c(N3CCN(CCCN4CCN(c5ccnc6cc(Cl)ccc56)CC4)CC3)ccnc2c1 [Piperaquine] (top concentration 23.0415 µM)	78.2%	97.8%	507	534

SMILES	viability [1]	viability [2]	area under the dose-response curve [3]	area under the dose-response curve [4]
Nc1nccc(-c2ccc3noc(-c4ccc(Cl)cc4)c3c2)n1 [Pim 1 inhibitor 2] (top concentration 46.0829 µM)	62.6%	45.2%	490	468
Cc1cc(Nc2cc(CN3CCOCC3)c3nc(C)c(Cc4ccc(Cl)cc4F)n3n2)[nH]n1 [Gandotinib] (top concentration 46.0829 µM)	23.8%	22.4%	503	467
c1cc(-c2cnn3cc(-c4ccc(OCCN5CCCCC5)cc4)cnc23)ccn1 [Dorsomorphin] (top concentration 46.0829 µM)	2.62%	2.98%	436	433
C[C@@H]1CC[C@H]2[C@@H](C)C(=O)O[C@@H]3O[C@@]4(C)CC[C@@H]1[C@]32OO4 [Artemisinin] (top concentration 46.0829 µM)	90.5%	83.8%	460	512
CC[C@@H](C(N)=O)N1CCCC1=O [Levetiracetam] (top concentration 46.0829 µM)	83.4%	91.5%	545	584
OC[C@H]1O[C@H]([C@@H](F)[C@@H]1O)N2\C=C/C(=O)NC2=O (top concentration 46.0829 µM)	46.4%	38.1%	538	451
CC\1=C(C(=O)N(\C=C1)C2=CC=C(C=C2)C3=NC=CO3)/C4=CC5=CN=C(N)N=C5C=C4 [AMG-25] (top concentration 46.0829 µM)	108%	82.1%	571	506
Cc1ccc(NC(=O)c2cccc(N(C)C)c2)cc1NC(=O)c1ccc(O)cc1 (top concentration 46.0829 µM)	32%	52.5%	360	491
CCOC(=O)N1CCN(/[N+]([O-])=N/Oc2ccc([N+](=O)[O-])cc2[N+](=O)[O-])CC1 (top concentration 46.0829 µM)	3.57%	2.03%	378	418
COc1cc2c(NC3CCN(C(C)C)CC3)nc(C3CCCCC3)nc2cc1OCCCN1CCCC1 [UNC-0638] (top concentration 46.0829 µM)	4.01%	12.3%	368	435
NC(=O)Nc1cc(-c2ccc(CN3CCOCC3)cc2)sc1C(N)=O [AZ-TAK1 Inhibitor] (top concentration 46.0829 µM)	29.1%	36.6%	488	504
COc1ccc2cc3[n+](cc2c1OC)CCc1cc2c(cc1-3)OCO2 [Berberine] (top concentration 46.0829 µM)	37.7%	50%	462	476
CC1=C(C)C2=C(S1)[N]3C(=NN=C3[C@H](CC(=O)OC(C)(C)C)/N=C2/C4=CC=C(Cl)C=C4)C [JQ1] (top concentration 46.0829 µM)	3.31%	3.47%	450	342
CCCCOc1ccc(C(=O)Nc2ccc(F)cc2F)cc1 (top concentration 46.0829 µM)	114%	58.2%	522	348
CCCn1c(=O)c2[nH]c(-c3cnn(Cc4cccc(C(F)(F)F)c4)c3)nc2n(CC)c1=O [CVT-6883] (top concentration 46.0829 µM)	62.9%	76.2%	535	573
O=C1CCC[C@@H]2[C@H]3CCC[N+]4([O-])CCC[C@@H](CN12)[C@@H]34 (stereo not given in full) [Oxymatrine] (top concentration 46.0829 µM)	134%	122%	504	525
COC(c1ccccc1)(c1ccccc1)[C@H](Oc1nc(C)cc(C)n1)C(=O)O [Ambrisentan] (top concentration 46.0829 µM)	99.5%	112%	527	552
COc1cc([C@@H]2c3cc4c(cc3[C@@H](O)C3COC(=O)C32)OCO4)cc(OC)c1O (stereo not given in full) [4-Demethylepipodophyllotoxin] (top concentration 46.0829 µM)	44.7%	50.3%	357	377
OC[C@H]1O[C@H](C[C@@H]1O)N2/C=C(C(=O)NC2=O)/C(F)(F)F [Trifluridine] (top concentration 46.0829 µM)	40%	53.2%	433	513
CNC(=O)c1cccc(-c2ccc3c(N4CCOC[C@@H]4C)nc(N4CCOC[C@@H]4C)nc3n2)c1 [AZD-2014] (top concentration 46.0829 µM)	49.5%	59.6%	317	425
C\C1=C\C(=O)OC2=C1C=CC(=C2)O [4-methylumbelliferone] (top concentration 46.0829 µM)	103%	86.3%	602	500
O=C(Nc1ccccc1-c1cn2c(CN3CCNCC3)csc2n1)c1cnc2ccccc2n1 [SRT1720] (top concentration 46.0829 µM)	0.447%	7.57%	476	456
